Assay results as given in patent publication US7674456B2, “Breast cancer cell lines and uses thereof” (priority 2004, dated 2010).

System: tumor cells from right chest wall lesion (mammary carcinoma cells)
Experiment: Ex vivo drug response testing of fresh tumor specimen (DISC, MTT and redox assays)
Format: cell-based, human
Set-up: key to ASSAY RESULT: Sensitive: the drug inhibits the cell growth or proliferation of the cell to a greater degree than is expected for an appropriate control; Resistant: the drug inhibits the cell growth or proliferation of the cell to a lesser degree than is expected for an appropriate control
Settings: for ASSAY RESULT: fresh tumor cells, compared with a database of assays of similar technical characteristics; for activity in vitro (in words): summary of the table
Protocol: An unfixed portion of the tumor was further analyzed for response to several drugs. A specimen consisted of 1 piece of yellow, white, and red tissue, obtained from the right chest wall lesion. The piece was soft and sticky in texture, measured 0.8×1.4 cm, and weighed 0.47 gm. The specimen was minced to individual pieces smaller than one mm with surgical scissors and digested for 1.3 hours with collagenase-DNAse. Viable tumor cells were enriched by Ficoll-diatriozate centrifugation. Cytospin slides were prepared, air-dried, and stained with Fast Green/Hamatoxyline-eosin. On this cytology preparation obtained from mechanically-dissociated, enzyme-digested tissue, there was a collection of somewhat pleomorphic tumor cells, consistent with mammary carcinoma cells. Tumor cells were present as loose cell clusters (60% of total tumor cells) and, less commonly, as discohesive single cells (40% of total tumor cells). The tumor cells measured 22-25 microns in diameter and had N/N+C ratios of 0.6-0.8. […] Nucleoli were variably prominent. There were no cells with large clear globular areas or secretory material within the cytoplasm. There was slight cytoplasmic and nuclear molding. Approximately 40% of the enriched tumor cell fraction consisted of normal-appearing connective tissue cells and inflammatory cells.
Cells were plated for testing in 3 different assay endpoints. In the DISC assay, the entire contents of the cell culture were cytocentrifuged onto permanent microscope slides and differentially stained to allow discrimination of normal and neoplastic cells and living and dead cells. […] The MTT assay measures mitochondrial metabolism in the entire cell culture. The redox assay measures total metabolic activity in the entire cell culture, using the Alamar Blue reagent to index the oxygen reduction potential of the culture medium. Because of the very low yield of viable tumor cells, only a small drug panel could be tested. Additionally, some drugs could be tested only in a single assay system.
At the conclusion of the culture period, there was 10% spontaneous attrition in viable tumor cell numbers. Formazan signal in the MTT assay was moderate, reflective of moderate cell metabolism, and allowing for an MTT assay of good quality. Percentage of tumor cells as a percentage of total viable cells at the conclusion of the culture was approximately 85. DISC and MTT assays were in reasonably good agreement. The overall technical quality of the assays was good, marred only by the low yield of tumor cells, which severely limited the scope of testing.
Results were compared with a database of assays which had similar technical characteristics, as the technical characteristics of these assays influence the in vitro results, along with the intrinsic drug resistance of the tumor cells. By controlling for technical characteristics such as spontaneous cell loss, metabolic signal at the conclusion of the culture, and tumor cell clustering, biological correlations are improved.

In the case of `N.N.O=C([O-])C1(C(=O)[O-])CCC1.[Pt+2]` [Carboplatin], the “ASSAY RESULT” value is reported as “Resistant” and the “activity in vitro (in words)” value is reported as “poor activity”.

With `O=P1(N(CCCl)CCCl)NC(OO)CCO1` (centres unmarked) [Cyclophosphamide (4HC)] the “ASSAY RESULT” value was “Sensitive” and the “activity in vitro (in words)” value was “above-average activity”.

In the case of `COc1cccc2c1C(=O)c1c(O)c3c(c(O)c1C2=O)C[C@@](O)(C(=O)CO)C[C@@H]3O[C@H]1C[C@H](N)[C@H](O)[C@H](C)O1` [Doxorubicin], the “ASSAY RESULT” value is reported as “Intermediate”.

In the case of `COc1cc([C@@H]2c3cc4c(cc3[C@@H](O[C@@H]3O[C@@H]5CO[C@@H](C)O[C@H]5[C@H](O)[C@H]3O)[C@H]3COC(=O)[C@H]23)OCO4)cc(OC)c1O` [Etoposide], the “ASSAY RESULT” value is reported as “Sensitive” and the “activity in vitro (in words)” value is reported as “above-average activity”.

With `O=c1[nH]cc(F)c(=O)[nH]1` [Fluorouracil] the “ASSAY RESULT” value was “Intermediate”.

For `O=C1c2c(O)ccc(O)c2C(=O)c2c(NCCNCCO)ccc(NCCNCCO)c21` [Mitoxantrone], the “ASSAY RESULT” value was “Intermediate”.

For `CC(=O)O[C@H]1C(=O)[C@@]2(C)[C@H]([C@H](OC(=O)c3ccccc3)[C@]3(O)C[C@H](OC(=O)[C@H](O)[C@@H](NC(=O)c4ccccc4)c4ccccc4)C(C)=C1C3(C)C)[C@]1(OC(C)=O)CO[C@@H]1C[C@@H]2O` [Taxol (Paclitaxel), Paclitaxel], the “ASSAY RESULT” value was “Sensitive”, the “activity in vitro (in words)” value was “best drug in vitro” and the “activity in vitro (in words)” value (listed as paclitaxel (Taxol)) was “above-average activity”.

`CCC1=C[C@@H]2CN(C1)Cc1c([nH]c3ccccc13)[C@@](C(=O)OC)(c1cc3c(cc1OC)N(C)[C@H]1[C@@](O)(C(=O)OC)[C@H](OC(C)=O)[C@]4(CC)C=CCN5CC[C@]31[C@@H]54)C2` [Vinorelbine (Navelbine), Vinorelbine] was tested, and the “ASSAY RESULT” value was “Intermediate”.

For Gemcitabine + Cisplatin, the “ASSAY RESULT” value was “Intermediate”.
